# Measured values reported in US11608337B2, “Heterocyclic compounds as immunomodulators” (Incyte Corporation, priority 2016, dated 2023).
# Target: PD-1/PD-L1 protein/protein interaction (Homo sapiens (Human), UniProt Q9NZQ7)
# Experiment: PD-1/PD-L1 Homogeneous Time-Resolved Fluorescence (HTRF) Binding Assay
# Conditions: recombinant human PD-L1 (19-238) His-tag, human PD-1 (25-167) Fc tag; 25° C., PBS pH 7.4
# Method: Example A. PD-1/PD-L1 Homogeneous Time-Resolved Fluorescence (HTRF) Binding Assay
# The assays were conducted in a standard black 384-well polystyrene plate with a final volume of 20 μL. Inhibitors were first serially diluted in DMSO and then added to the plate wells before the addition of other reaction components. The final concentration of DMSO in the assay was 1%. The assays were carried out at 25° C. in the PBS buffer (pH 7.4) with 0.05% Tween-20 and 0.1% BSA. Recombinant human PD-L1 protein (19-238) with a His-tag at the C-terminus was purchased from AcroBiosystems (PD1-H5229). Recombinant human PD-1 protein (25-167) with Fc tag at the C-terminus was also purchased from AcroBiosystems (PD1-H5257). PD-L1 and PD-1 proteins were diluted in the assay buffer and 10 μL was added to the plate well. Plates were centrifuged and proteins were preincubated with inhibitors for 40 minutes. The incubation was followed by the addition of 10 μL of HTRF detection buffer supplemented with Europium cryptate-labeled anti-human IgG (PerkinElmer-AD0212) specific for Fc and anti-His antibody conjugated to SureLight®-Allophycocyanin (APC, PerkinElmer-AD0059H). After centrifugation, the plate was incubated at 25° C. for 60 min. before reading on a PHERAstar FS plate reader (665 nm/620 nm ratio). Final concentrations in the assay were […], 10 nM PD-L1, 1 nM europium anti-human IgG and 20 nM anti-His-Allophycocyanin. IC50 determination was performed by fitting the curve of percent control activity versus the log of the inhibitor concentration using the GraphPad Prism 5.0 software.
# Data obtained for the Example compounds using the PD-1/PD-L homogenous time-resolved fluorescence (HTRF) binding assay described in Example A is provided in Table 1.
# PD-1/PD-L1 protein/protein interaction, sequence (Q9NZQ7 19-238): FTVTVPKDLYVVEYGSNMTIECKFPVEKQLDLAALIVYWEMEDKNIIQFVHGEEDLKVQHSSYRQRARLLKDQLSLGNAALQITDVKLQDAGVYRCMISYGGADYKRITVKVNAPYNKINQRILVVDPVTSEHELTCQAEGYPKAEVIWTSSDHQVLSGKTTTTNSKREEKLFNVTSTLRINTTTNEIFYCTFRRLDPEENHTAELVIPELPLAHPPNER
row,IC50 [nM],SMILES
1,≤ 100,"Cc1c(-c2ccccc2)cccc1-c1nc2c(s1)CN(CCCC(=O)O)CC2 [Example 8, 4-[2-(2-methylbiphenyl-3-yl)-6,7-dihydro[1,3]thiazolo[5,4-c]pyridin-5(4H)-yl]butanoic acid]"
2,≤ 100,"Cc1c(-c2cccc(C(N)=O)c2)cccc1-c1nc2c(s1)CNCC2 [Example 38, 2′-methyl-3′-(4,5,6,7-tetrahydro[1,3]thiazolo[5,4-c]pyridin-2-yl)biphenyl-3-carboxamide]"
3,500 to 10000,"Cc1c(-c2nc3c(s2)CNCC3)ccnc1-c1ccc2c(c1)OCCO2 [Example 26, 2-[2-(2,3-dihydro-1,4-benzodioxin-6-yl)-3-methylpyridin-4-yl]-4,5,6,7-tetrahydro[1,3]thiazolo[5,4-c]pyridine]"
4,100 to 500,"Cc1c(-c2ccccc2)cccc1-c1nc2c(s1)CN(C1CCOCC1)CC2 [Example 6, 2-(2-methylbiphenyl-3-yl)-5-(tetrahydro-2H-pyran-4-yl)-4,5,6,7-tetrahydro[1,3]thiazolo[5,4-c]pyridine]"
5,≤ 100,"CCOc1cccc(-c2cccc(-c3nc4c(s3)CNCC4)c2C)c1 [Example 33, 2-(3′-ethoxy-2-methylbiphenyl-3-yl)-4,5,6,7-tetrahydro[1,3]thiazolo[5,4-c]pyridine]"
6,≤ 100,"COc1cccc(-c2cccc(-c3nc4c(s3)CNCC4)c2C)c1 [Example 28, 2-(3′-methoxy-2-methylbiphenyl-3-yl)-4,5,6,7-tetrahydro[1,3]thiazolo[5,4-c]pyridine]"
7,≤ 100,"Cc1c(-c2ccccc2)cccc1-c1nc2c(s1)CN(C)CC2 [Example 3, 5-methyl-2-(2-methylbiphenyl-3-yl)-4,5,6,7-tetrahydro[1,3]thiazolo[5,4-c]pyridine]"
8,100 to 500,"Cc1c(-c2ccccc2)cccc1-c1nc2c(s1)CN(C[C@@H]1C[C@H]1C(=O)O)CC2 (relative stereo) [Example 9, Trans-2-{[2-(2-methylbiphenyl-3-yl)-6,7-dihydro[1,3]thiazolo[5,4-c]pyridin-5(4H)-yl]methyl}cyclopropanecarboxylic acid]"
9,≤ 100,"Cc1c(C2=CCCCC2)cccc1-c1nc2c(s1)CNCC2 [Example 32, 2-(3-cyclohex-1-en-1-yl-2-methylphenyl)-4,5,6,7-tetrahydro[1,3]thiazolo[5,4-c]pyridine]"
10,≤ 100,"COc1cccc(-c2ccnc(-c3nc4c(s3)CNCC4)c2C)c1 [Example 15, 2-[4-(3-methoxyphenyl)-3-methylpyridin-2-yl]-4,5,6,7-tetrahydro[1,3]thiazolo[5,4-c]pyridine]"
11,500 to 10000,"Cc1c(-c2ccccc2)cccc1-c1nc2c([nH]1)CCNC2 [Example 21, 2-(2-methylbiphenyl-3-yl)-4,5,6,7-tetrahydro-1H-imidazo[4,5-c]pyridine]"
12,100 to 500,"Cc1c(-c2ccccc2)cccc1-n1cc2c(n1)CCNC2 [Example 17, 2-(2-methylbiphenyl-3-yl)-4,5,6,7-tetrahydro-2H-pyrazolo[4,3-c]pyridine]"
13,≤ 100,"N#Cc1c(-c2ccc3c(c2)OCCO3)cccc1-c1nc2c(s1)CNCC2 [Example 13, 2-(2,3-dihydro-1,4-benzodioxin-6-yl)-6-(4,5,6,7-tetrahydro[1,3]thiazolo[5,4-c]pyridin-2-yl)benzonitrile]"
14,500 to 10000,"Cc1c(-c2ccc(F)cn2)cccc1-c1nc2c(s1)CNCC2 [Example 31, 2-[3-(5-fluoropyridin-2-yl)-2-methylphenyl]-4,5,6,7-tetrahydro[1,3]thiazolo[5,4-c]pyridine]"
15,100 to 500,"Cc1c(-c2ccccc2)cccc1-c1nc2c(s1)CN(Cc1cn[nH]c1)CC2 [Example 10, 2-(2-methylbiphenyl-3-yl)-5-(1H-pyrazol-4-ylmethyl)-4,5,6,7-tetrahydro[1,3]thiazolo[5,4-c]pyridine]"
16,≤ 100,"Cc1c(-c2ccccc2)ccnc1-c1nc2c(s1)CNCC2 [Example 14, 2-(3-methyl-4-phenylpyridin-2-yl)-4,5,6,7-tetrahydro[1,3]thiazolo[5,4-c]pyridine]"
